Laboratory results reported in US8815529B2, “Sulfotransferase assay” (Research & Diagnostics Systems, Inc., priority 2011, dated 2014).
Each block holds one molecule with its values, some of them ahead of it.

Assays:
gPAPP [1] = target: T1, gPAPP (Mus musculus, UniProt Q80V26); experiment: Specificity of gPAPP on 3′-AMP, 5′-AMP, PAP and PAPS (phosphate release); type: biochemical; conditions: for activity of gPAPP alone on the nucleotide: 1 μg gPAPP; for activity of gPAPP alone on the nucleotide / phosphate released by gPAPP versus amount of gPAPP: 10 mM Mg2+; for phosphate released by gPAPP versus amount of gPAPP: 50 nmol PAP or PAPS, pH 7.5, 20 minutes
T1 construct: N-terminal His-tagged recombinant protein containing amino acids from E51 to K356; His tag (N); host or cells: CHO cells
T1 sequence (Q80V26 51-356): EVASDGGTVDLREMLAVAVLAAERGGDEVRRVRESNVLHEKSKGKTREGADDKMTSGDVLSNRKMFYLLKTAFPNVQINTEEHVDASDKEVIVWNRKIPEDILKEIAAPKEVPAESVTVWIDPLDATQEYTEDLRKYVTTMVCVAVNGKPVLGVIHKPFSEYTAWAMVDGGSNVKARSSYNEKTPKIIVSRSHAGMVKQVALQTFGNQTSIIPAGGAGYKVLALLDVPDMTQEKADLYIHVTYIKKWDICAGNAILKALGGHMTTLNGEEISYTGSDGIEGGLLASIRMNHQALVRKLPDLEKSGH
Method: (§1) In the following examples, the gPAPP used was recombinant mouse gPAPP expressed in CHO cells as an N-terminal His-tagged recombinant protein containing amino acids from E51 to K356, created by R & D Systems. The sequence was based on accession number NP 808398 from the National Center for Biotechnology Information. The chondroitin sulfate (CS) and p-nitrophenol (pNP) were obtained from Sigma Aldrich. The PAPS was prepared by R & D Systems using recombinant S. cerevisiae ATP sulurylase and P. chrysogenum APS kinase. The APS kinase was also prepared by R & D Systems. Recombinant human SULT1A1, CHST3, CD73, TNAP and Malachite Green Phosphate Detection Kit were from R & D Systems. Protein concentrations were quantified using the Bradford assay as described by Bradford, M. M., A rapid and sensitive method for the quantitation of microgram quantities of protein utilizing the principle of protein-dye binding. Anal Biochem. 1976. Vol 72, Page 248-254, the relevant portions of which are hereby incorporated by reference. Phosphate levels were determined using the Malachite Green Phosphate Detection Kit available from R & D Systems, according to the package instructions. All examples were performed in a buffer of 25 mM Tris at pH 7.5.
The specificity of gPAPP was first tested on 3′-AMP, 5′-AMP and PAP in the absence or presence of CD73 by combining 10 nmol of either 3′-AMP, 5′-AMP or PAP with 1 μg gPAPP and/or 0.1 μg CD73 in 50 μL assay buffer containing 10 mM Mg^2 at pH 7.5. In a parallel experiment, the same amount of nucleotide was combined with tissue-non-specific alkaline phosphatase (TNAP) at pH 9.0. The ratio between the phosphate released by gPAPP and/or CD73 (Pi) and the phosphate released by TNAP (PiTNAP) was plotted versus the nucleotide and phosphatases in FIG. 5. […] When gPAPP and CD73 were used together, they released twice as much phosphate from PAP than gPAPP alone.
The specificity of gPAPP was tested on PAP and PAPS. In this example, 50 nmol of either PAP or PAPS was treated with different amounts of gPAPP in 50 μL assay buffer containing 10 mM Mg^2 at pH 7.5 for 20 minutes. The released phosphate was plotted versus the amount of gPAPP.

sulfotransferases = conditions: reported; cited from earlier work
gPAPP [2] = target: T1, gPAPP; experiment: Inhibition of gPAPP hydrolysis of PAP by PAPS; type: biochemical; conditions: 0.5 mM PAPS, amount of PAP greater than the coupling capacity
Method: as §1, with “Vol 72, Page 248-254, the relevant portions of which are hereby incorporated by reference.” left out, “All examples were performed in a buffer of 25 mM Tris at pH 7.5.” left out
In this example, the coupling capacity of gPAPP was determined. […] The coupling capacity of gPAPP was determined by combining 1 μg gPAPP with increasing amounts of PAP, in the presence or absence of 0.5 mM PAPS in 50 μL assay buffer containing 10 mM Mg^2+ at pH 7.5 for either 20 or 40 minutes. […]

CHST3 = target: T2, CHST3 (Homo sapiens, UniProt Q7LGC8); experiment: CHST3 substrate curves for CS and PAPS, gPAPP-coupled assay; type: biochemical
T2 construct: purchased R & D Systems
T2 sequence (Q7LGC8 1-479): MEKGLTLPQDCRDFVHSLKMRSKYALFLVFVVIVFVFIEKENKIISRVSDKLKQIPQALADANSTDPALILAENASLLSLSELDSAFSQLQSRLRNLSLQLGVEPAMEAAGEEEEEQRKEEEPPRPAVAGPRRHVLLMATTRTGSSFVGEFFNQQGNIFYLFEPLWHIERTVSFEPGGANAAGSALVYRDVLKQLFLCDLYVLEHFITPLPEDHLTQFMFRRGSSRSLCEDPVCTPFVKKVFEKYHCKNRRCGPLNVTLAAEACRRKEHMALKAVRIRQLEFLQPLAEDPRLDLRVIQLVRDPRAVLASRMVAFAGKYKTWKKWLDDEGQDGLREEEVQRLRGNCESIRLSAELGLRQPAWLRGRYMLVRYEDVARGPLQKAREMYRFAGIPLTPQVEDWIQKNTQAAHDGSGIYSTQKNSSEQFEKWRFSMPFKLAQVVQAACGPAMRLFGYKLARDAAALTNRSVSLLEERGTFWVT
Method: as §1
Carbohydrate sulfotransferase 3 (CHST3) is a sulfotransferase which is known to catalyze the sulfation of N-acetylgalactosamine at the 6-O position. In a first series of reactions, 1 μg CHST3 was combined with 1 μg gPAPP and increasing concentrations of CS in 50 μl assay buffer containing 0.8 mM PAPS, 10 mM MgCl2 at pH 7.5. In a second series of reactions, 0.4 μg CHST3 was combined with 1 μg gPAPP and increasing concentrations of PAPS in 50 μL assay buffer containing […], 10 mg/ml CS, 10 mM MgCl2 at pH 7.5.
An enzyme dose curve was then created for CHST3 at the optimal concentrations for both the donor and acceptor substrates in FIG. 11. To create the dose curve, 1 μg gPAPP was combined with increasing amounts of CHST3 in the presence of 10 mg/ml of CS and 0.5 mM of PAPS in 50 μl assay buffer containing 10 mM MgCl2 at pH 7.5.

SULT1A1 [3] = target: T3, SULT1A1 (Homo sapiens, UniProt P50225); conditions: read-out: half maximal velocity (Km); reported; cited from earlier work
T3 sequence (P50225 whole entry): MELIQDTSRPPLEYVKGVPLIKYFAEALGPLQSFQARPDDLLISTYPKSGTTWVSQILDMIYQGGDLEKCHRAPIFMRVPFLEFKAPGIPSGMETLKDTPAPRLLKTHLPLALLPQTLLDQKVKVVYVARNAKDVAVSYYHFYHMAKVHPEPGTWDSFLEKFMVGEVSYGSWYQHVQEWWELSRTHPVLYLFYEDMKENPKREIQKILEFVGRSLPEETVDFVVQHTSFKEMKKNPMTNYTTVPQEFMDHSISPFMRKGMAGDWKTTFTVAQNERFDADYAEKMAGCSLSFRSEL

SULT1A1 [4] = target: T3, SULT1A1; experiment: SULT1A1 velocity versus pNP concentration, gPAPP/CD73-coupled assay; type: biochemical; design: purchased R & D Systems; conditions: 0.1 μg SULT1A1, 0.25 mM PAPS, gPAPP and CD73
Method: as §1, with “Anal Biochem. 1976. Vol 72, Page 248-254, the relevant portions of which are hereby incorporated by reference.” left out, “All examples were performed in a buffer of 25 mM Tris at pH 7.5.” left out
A series of reactions were performed by combining increasing concentrations of pNP with 0.1 μg SULT1A1, 2 μg PAPP and 0.1 μg CD73 in 200 μL of an assay buffer containing 0.25 mM PAPS, 10 mM MgCl2 at pH 7.5. […] These values are consistent with reported values for SULT1A1 determined using radioisotope assays in the literature.

activity of gPAPP alone on the nucleotide (gPAPP [1]; 10 nmol nucleotide, pH 7.5): not
Molecule: Nc1ncnc2c1ncn2[C@@H]1O[C@H](CO)[C@@H](OP(=O)(O)O)[C@H]1O [3′-AMP]

activity of gPAPP alone on the nucleotide (gPAPP [1]; 10 nmol nucleotide, pH 7.5): not
Molecule: Nc1ncnc2c1ncn2[C@@H]1O[C@H](COP(=O)(O)O)[C@@H](O)[C@H]1O [5′-AMP, 5-adenosine monophosphate]

phosphate released by gPAPP and CD73 together compared with gPAPP alone (gPAPP [1]; 10 nmol nucleotide, 1 μg gPAPP and 0.1 μg CD73, 10 mM Mg2+, pH 7.5): twice as much
activity of gPAPP alone on the nucleotide (gPAPP [1]; 10 nmol nucleotide, pH 7.5): showed activity
phosphate released by gPAPP versus amount of gPAPP (gPAPP [1]): increased with the amount of the enzyme
Molecule: Nc1ncnc2c1ncn2[C@@H]1O[C@H](COP(=O)(O)O)[C@@H](OP(=O)(O)O)[C@H]1O [PAP, 3′-phosphoadenosine-5′-phosphate]
inhibition of sulfotransferases (sulfotransferases): potent inhibitor

phosphate released by gPAPP versus amount of gPAPP (gPAPP [1]): showed no change
inhibition of the hydrolysis of PAP (gPAPP [2]): ~20%
level above which substrate inhibition occurred (CHST3; 0.4 μg CHST3, 10 mg/ml CS): above 0.5 mM
Km (CHST3; 0.4 μg CHST3, 10 mg/ml CS, read-out: concentration for half-maximal velocity (Km for PAPS)): < 100 µM
optimal concentration (visually determined) (CHST3; highest point of the curve of FIG. 10B): about 0.5 mM
Molecule: Nc1ncnc2c1ncn2[C@@H]1O[C@H](COP(=O)(O)OS(=O)(=O)O)[C@@H](OP(=O)(O)O)[C@H]1O [PAPS, 3′-phosphoadenosine-5′-phosphosulfate]

Molecule: O=[N+]([O-])c1ccc(O)cc1 [pNP, p-nitrophenol]
Km (SULT1A1 [3]): < 1 µM
concentration above which substrate inhibition was present (SULT1A1 [4]): above 4 mM
concentration for half maximum velocity (SULT1A1 [4]; projected): < 1.0 µM

concentration for half-maximal velocity (Km for CS) (CHST3; 1 μg CHST3, 0.8 mM PAPS): about 2 mg/ml
substrate inhibition (CHST3; 1 μg CHST3, 0.8 mM PAPS): no substrate inhibition
optimal concentration (visually determined) (CHST3; highest point of the curve of FIG. 10A): > 5 mg/mL
Molecule: chondroitin sulfate [CS]
